{"source": "patent US20230398087A1", "about": "“APPLICATION OF BZP IN TREATMENT OF ISCHEMIC CARDIOVASCULAR AND CEREBRAL VASCULAR DISEASES” (priority 2020, published 2023)", "key": {"platelet aggregation": {"system": "platelet aggregation", "assay": "Rat in vivo platelet aggregation"}, "[1]": {"system": "acute global cerebral ischemia in rats", "assay": "Acute global cerebral ischemia in rats, volume of cerebral infarction (nuclear magnetic resonance)", "format": "in vivo", "excerpt": "2.7 The Protective Effect of BZP on Acute Global Cerebral Ischemia in Rats: […]"}, "neurobehavior": {"system": "neurobehavior", "assay": "Safety pharmacology, neurobehavior", "format": "in vivo, rats", "protocol": "These changes all recovered within 4 hours after drug withdrawal. The effective dose (12 mg/kg) of BZP to protect against ischemia-reperfusion injury in rats was lower than the dose (50 mg/kg) that caused neurological effects in rats."}, "[2]": {"assay": "Tissue distribution, metabolism and excretion in animals", "format": "in vivo", "excerpt": "BNBP-OH is the main metabolite of BNBP (via NADPH coenzyme/CYP450)."}, "[3]": {"assay": "Phase I safety and tolerability in healthy subjects (BZP1601 single dose, BZP1702 multiple doses)", "format": "in vivo, human", "excerpt": "Analysis population: same as BZP1601 trial. All 36 subjects enrolled were included in the safety analysis data set, 30 subjects in the BZP group and 6 subjects in the placebo group.\nThe AE related to the study drug occurred from a few minutes to the 9th day after administration, and the symptoms turned to disappear without any clinical intervention."}, "[4]": {"system": "acute ischemic stroke patients", "assay": "BZP1703 Phase II clinical trial in acute ischemic stroke", "format": "in vivo, human", "conditions": "preliminary results", "excerpt": "The BZP1703 clinical trial is a multi-center, randomized, double-blind, placebo-controlled Phase II clinical trial. The purpose of the trial is to evaluate the safety and feasibility of different doses of BZP for injection compared with placebo in the treatment of acute ischemic stroke, and to preliminarily explore its effectiveness, so as to provide a basis for the design of Phase III clinical trial.\nThe trial plans to enroll 375 acute ischemic stroke patients aged 45 to 75 in China. […]\nThe primary safety endpoint of the BZP1703 trial is SAE, and the primary efficacy endpoint is the difference between the NIHSS score on day 14 and the baseline NIHSS score. Secondary safety endpoints include all-cause death, fatal bleeding and symptomatic intracranial hemorrhage, hemorrhagic transformation of cerebral infarction detected by head magnetic resonance imaging (MRI) on day 14, various adverse events; other bleeding events, AE, AEs of special interest (seizures, bradycardia, atrioventricular block, coagulation abnormalities, proteinuria, leukopenia), number and incidence of patients with new vascular events (ischemic stroke/hemorrhagic stroke/myocardial infarction/vascular death), vital signs, physical examination, laboratory tests (blood routine, blood biochemistry, urine routine, stool routine, coagulation function, etc.), 12-lead electrocardiogram (ECG) and other abnormalities. […]"}, "[5]": {"assay": "BZP1601 Phase I single dose pharmacokinetics in healthy subjects"}, "[6]": {"conditions": "single intravenous infusion, 25-400 mg"}}, "note": "“Also recorded” adds a separate entry of the source."}
{"smiles": "CCCCC(O)c1ccc(Br)cc1C(=O)[O-].[Na+]", "note": "(stereo not drawn) [BZP, sodium 5-bromo-2-(α-hydroxypentyl)benzoate]", "values": [{"measurement": "platelet aggregation inhibition rate, ADP", "setting": "platelet aggregation; first (low) dose group", "result": 23.89, "unit": "%"}, {"measurement": "platelet aggregation inhibition rate, arachidonic acid", "setting": "platelet aggregation; first (low) dose group", "result": 42.08, "unit": "%"}, {"measurement": "platelet aggregation inhibition rate, thrombin", "setting": "platelet aggregation; first (low) dose group", "result": 23.87, "unit": "%"}, {"measurement": "platelet aggregation inhibition rate, ADP", "setting": "platelet aggregation; second (medium) dose group", "result": 34.42, "unit": "%"}, {"measurement": "platelet aggregation inhibition rate, arachidonic acid", "setting": "platelet aggregation; second (medium) dose group", "result": 60.32, "unit": "%"}, {"measurement": "platelet aggregation inhibition rate, thrombin", "setting": "platelet aggregation; second (medium) dose group", "result": 37.75, "unit": "%"}, {"measurement": "platelet aggregation inhibition rate, ADP", "setting": "platelet aggregation; third (high) dose group", "result": 44.14, "unit": "%"}, {"measurement": "platelet aggregation inhibition rate, arachidonic acid", "setting": "platelet aggregation; third (high) dose group", "result": 72.20, "unit": "%"}, {"measurement": "platelet aggregation inhibition rate, thrombin", "setting": "platelet aggregation; third (high) dose group", "result": 55.47, "unit": "%"}, {"measurement": "reduction of volume of cerebral infarction compared with Br-NBP group and NBP-K group", "setting": "[1]; 12 and 24 mg/kg of BZP (P<0.01)", "result": "better than those in Br-NBP group and NBP-K group"}, {"measurement": "volume of cerebral infarction", "setting": "[1]; BZP 0.75, 3, 12 and 24 mg/kg, Br-NBP 10.5 mg/kg, NBP-K 9.6 mg/kg, vs model group", "result": "significantly reduce"}, {"measurement": "time to recovery of neurobehavioral changes after drug withdrawal", "setting": "neurobehavior; 50 and 100 mg/kg", "result": "≤ 4", "unit": "h"}, {"measurement": "dose that caused neurological effects in rats", "setting": "neurobehavior; single intravenous injection", "result": 50, "unit": "mg/kg"}, {"measurement": "body temperature", "setting": "neurobehavior; single intravenous injection 50 mg/kg and 100 mg/kg", "result": "decrease in body temperature"}, {"measurement": "neurobehavioral signs at high dose", "setting": "neurobehavior; single intravenous injection 100 mg/kg", "result": "decreased activity, erect hair, decreased frequency of defecation and urination and loss of pupillary stimulation reflex"}, {"measurement": "tissue distribution of BZP", "setting": "[2]; at 110 minutes of administration", "result": "the fat content was the highest"}, {"measurement": "detectability in the brain", "setting": "[2]; eliminated quickly", "result": "cannot be detected after 50 minutes"}, {"measurement": "concentration in the brain", "setting": "[2]; in vivo", "result": "relatively low"}, {"measurement": "conversion of BZP in vivo", "setting": "[2]; not via NADPH coenzyme/CYP450", "result": "rapidly converted to BNBP"}, {"measurement": "ability of tissues to transform BZP in vitro", "setting": "[2]; spleen has the lowest ability", "result": "liver tissue has the strongest ability to transform BZP in vitro"}, {"measurement": "tissue distribution of BZP", "setting": "[2]; within 50 minutes of administration", "result": "higher in the lung tissue"}, {"measurement": "incidence of AE with dose increase", "setting": "[3]; both Phase I trials", "result": "does not increase with the dose increase; also recorded: did not increase with dose increase"}, {"measurement": "overall safety and tolerability in healthy subjects", "setting": "[3]; both Phase I trials", "result": "safe and well tolerated"}, {"measurement": "proportion of AE, BZP groups compared with the placebo group", "setting": "[3]; both Phase I trials", "result": "no statistical difference"}, {"measurement": "death, SAE, AE leading to drop out, other important AE", "setting": "[3]; both clinical trials", "result": "no death, SAE, AE leading to drop out, or other important AE"}, {"measurement": "dose-limiting toxicity (DLT)", "setting": "[3]; both clinical trials", "result": "No dose-limiting toxicity (DLT) occurred"}, {"measurement": "AE of more than mild severity", "setting": "[3]; multiple dose trial, 100 mg group, AE of others mild", "result": "one case of moderate hypotension"}, {"measurement": "AE judged by the investigator to be related to study drug, multiple doses", "setting": "[3]; multiple doses, dose group per AE", "result": "administration site pain; also recorded: hypotension; also recorded: hypokalemia; also recorded: decreased diastolic blood pressure"}, {"measurement": "safety and tolerance", "setting": "[3]; multiple intravenous infusions, 50 to 200 mg", "result": "good safety and tolerance"}, {"measurement": "AE judged by the investigator to be related to study drug, single dose", "setting": "[3]; single dose, dose group per AE", "result": "coagulopathy; also recorded: mild bradycardia; also recorded: decreased white blood cell counts; also recorded: decreased neutrophil cell count/percentage; also recorded: first-degree atrioventricular block; also recorded: proteinuria"}, {"measurement": "safety and tolerance", "setting": "[3]; [6]", "result": "good safety and tolerance"}, {"measurement": "effectiveness, single dose of 200 mg compared with 100 mg", "setting": "[4]; acute ischemic stroke patients", "result": "significantly more effective than a single dose of 100 mg"}, {"measurement": "effectiveness, 200 mg twice daily compared with 100 mg twice daily", "setting": "[4]; intravenous infusion for 14 days", "result": "significantly more effective than the dosage regimen of a single dose of 100 mg twice daily"}, {"measurement": "debrominated metabolites", "setting": "[5]; 200 mg group", "result": "no debrominated metabolites were found"}, {"measurement": "metabolites other than BNBP", "setting": "[5]; BZP1601", "result": "did not find other meaningful metabolites except BNBP"}, {"measurement": "Tmax / time of peak blood drug level", "setting": "[5]; BZP1601, median Tmax similar in each dose group", "result": "basically reached the peak blood drug level after the end of administration"}, {"measurement": "half-life", "setting": "[5]; both, human, plasma, iv", "result": "~8", "unit": "h"}, {"measurement": "difference in AUC0-t and Cmax between subjects of different genders", "setting": "[5]; single dose 25-400 mg", "result": "not significantly different; also recorded: There was no significant"}, {"measurement": "cumulative urine excretion rate across dose groups", "setting": "[5]; single dose, each dose group", "result": "basically the same"}, {"measurement": "relationship of AUC0-t and Cmax in plasma with the dose", "setting": "[5]; [6]", "result": "linearly related to the dose"}]}
